Test [1] concerns dialyzed LDL. The test can be described thus: Oxidized LDL lag time assay (antioxidant capacity). As to conditions: 3 μM Cu2SO4, drugs at 10^−4, 10^−5, 10^−6, and 10^−7 M. Set-up: species or system human. Here is the method:
Experiments were carried out on dialyzed LDL collected from four fasted persons. The LDL was used within 10 days of dialysis. The oxidizing agent was 3 μM […]; phosphate buffered saline was used to control pH, and all drugs were dissolved in ethanol; final concentrations of each drug in the assays were 10^−4, 10^−5, 10^−6, and 10^−7 M. The combined results are shown in FIG. 6.

Test [2] relates to male Sprague-Dawley rats. The test can be described thus: Example 4: effects on prostate and testis of male rats, 6 weeks. As to conditions: for Prostate Weight as % Body Weight / Seminal Vesicle Weight as % Body Weight / Testis Weight as % Body Weight / Body Weight (g): 0.1 ug/g of body weight once a day, mean ± SEM; for Body Weight (g): n = 10. Type of test: in vivo, rat. As for the experimental part:
Sixty male Sprague-Dawley rats, 7-8 weeks of age, were randomly assigned to groups of ten animals. Each group was randomly assigned to one of six treatments: Vehicle control (C), Estradiol-17β(E), (−)-Z-BDDA, (+)-Z-BDDA, (−)-HAA, and (+)-HAA. The compounds were all administered at a dose of 0.1 μg/g of body weight in 0.1 cc once a day for 6 weeks. The estrogenic compounds were dissolved in 10% ethanol and 90% olive oil vehicle. A temperature of 21° C. and an artificial 12 h light-dark cycle were maintained in the animal room. All animals were maintained on standard chow in powdered form for six weeks, and then sacrificed after an overnight fast under i.p. pentobarbitol anesthesia (50 mg/kg). Animal weight was measured weekly during the study. During sacrifice, blood was collected via cardiac puncture. Immediately following sacrifice, the fat pads, livers, pituitaries, testes, seminal vesicles, and prostate were removed and weighed, and snap frozen in liquid nitrogen. Prostates and one testis from 2-3 animals in each treatment group were fixed in 10% formalin for histological examination. These tissues were fixed overnight, blocked in paraffin, sectioned at 4 μm, stained with Hematoxylin and Eodsin, cover slipped, and examined microscopically. Quantitative results were subjected to an analysis of variance and means separated by a Tukey's Test (SYSTAT, Chicago, Ill.).

Test [3] relates to mice. As to conditions: cited from earlier work.
For test [4], the system named is rats, cats, chicks, and guinea pigs. As to conditions: animals including rats; cited from earlier work.
Test [5] relates to MCF-7 human mammary cancer cell line. As to conditions: human MCF-7 cells in culture; cited from earlier work.
Test [6] concerns male and female Wistar rats. The test can be described thus: Experiment 2: chronic treatment of male and female rats, 5-6 weeks. Type of test: in vivo, rat. As to conditions: for Food intake: n = 5. As for the experimental part: Twenty-five male and 25 female Wistar rats, 7-8 weeks of age, were randomly assigned to groups of five animals, respectively, for treatment with vehicle only (V), estradiol (E), (±)-Z-BDDA, (+)-Z-BDDA, or (−)-Z-BDDA. Each animal in group V received a daily 0.1 cc injection of a 10% ethanol-90% olive oil solution; the other treatments received their respective compound as a daily 0.1 cc injection, e.g., 2.5 μg of compound/g of body weight, in a 10% ethanol-90% olive oil solution. A temperature of 21° C. and an artificial 12-h light-dark cycle were maintained in the animal room. All animals were maintained on standard chow in powdered form, the males for five weeks and the females for six weeks, then sacrificed after an overnight fast under i.p. pentobarbital anesthesia (50 mg/kg). Animal weight and food intake were measured weekly during the study and subsequent FER values were determined. During sacrifice, blood was collected (via cardiac puncture) for glucose, luteinizing hormone, prolactin and testosterone measurements. The amounts of luteinizing hormone, prolactin and testosterone were measured to help elucidate the target tissue of the respective compounds in male and female rats. Immediately following sacrifice the fat pads and reproductive organs were removed and weighed.
Experiments 1 and 2 employed a randomized design. All data were analyzed by one-way analysis of variance (ANOVA,)and post-hoc comparisons were made with Tukey pairwise comparisons test. Significance was confirmed at p≦0.05 (SYSTAT 7.0, SPSS INC., 1997), and all values are reported as means±standard error of the mean.

The test system of test [7] is primary porcine granulosa cells. The test can be described thus: In situ apoptosis assay in primary porcine granulosa cells. The class given is cell-based. As to conditions: 24 hr treatment, 0.1, 1 and 10 μM combined, serum-free MEM; controls 63.4% / 68.4%. Here is the method:
Porcine ovaries were obtained from local packing plants and transported to the laboratory on ice-cold Hank's balanced salt solution (HBSS). Each of the follicles was aspirated with an insulin syringe, and the follicular fluid was centrifuged at 3000 rpm and 4° C. for 15 min. The supernatant was poured off and the cells were washed in 5 mls of cold HBSS and centrifuged for another 10 min. The cells were again resuspended in HBSS, and the number of viable cells counted under the microscope using a hematocytometer. Once the number of cells was determined, the cells were centrifuged again for 10 min. and resuspended in the appropriate volume of Eagle's minimum essential media (MEM) containing 10% fetal bovine serum (FBS) and antibiotic/antimycotics. The cells were plated at 250,000 per well in 8 chamber microscope slides (Nunc, Naperville, Ill.) which were pre-treated with poly-L-lysine for 10 min. The slides were incubated at 5% CO2/95% air at 37° C. Approximately 12 hours later, the medium was removed by vacuum and replaced with pre-warmed, serum-free MEM. Cells were then treated for 2-3 hrs with MEM only to wash out any estrogen effects from the serum (Winters et al. (1994) Biol. Reprod. 50 (Suppl. 1):113; Suttner et al. (1998) Biol. Reprod. 59 (Suppl.): (Accepted for publication). Following serum-free MEM treatment, cells were treated for 24 hr with (+) or (−) enantiomers of Z-BDDA or estradiol at 0. 1, 1, and 10 μM, or EtOH vehicle control in serum-free MEM. Cells were subsequently processed using an in situ apoptosis assay kit (Apotag-Plus In Situ Apoptosis Kit-Peroxidase, Edition 1.1., Oncor, Gaithersburg, Md., 1995) to study ovarian apoptosis (Suttner et al., 1998). The slides were washed in two changes of PBS for 5 min each, and then quenched in 2% hydrogen peroxide in methanol for 5 min. at room temperature. After pre-treatment with an equilibration buffer, 13 ul of Terminal deoxynucleotidyl Transferase (TdT) diluted with reaction buffer and distilled water were added, and the slides were incubated for 1 h at 37° C. in a humidified chamber. After this 1 h period, the slides were put in pre-warmed stop wash buffer in the incubator for 30 min to stop the reaction. Next, the slides were washed in three changes of PBS for 5 min. each, and the anti-digoxigenin peroxidase was placed on the slides for 30 min. in a humidified chamber at room temperature. […] The degree of apoptosis for the calorimetric apoptosis assay was quantified microscopically using an image analysis system (Optimas 5.23, Optimas Users Guide, 5th Edition, Redmond, Wash.). Ten measurements (captured images) were taken for each concentration based on a pre-determined grid. […] Percentage area of each color was then quantitated using the image analysis system. […]

[8] abbreviates: female rats, 2.5 ug/g of body weight daily, six weeks, mean ± SEM.
Where [9] appears, read: male rats, 2.5 ug/g of body weight daily, five weeks, mean ± SEM.

Here are results for 6 compounds from patent publication US6608111B1, “Method for treating or preventing prostatic conditions” (Southern Illinois University Office of Research, …, priority 1998, dated 2003).

As to `O=c1c(-c2ccc(O)cc2)coc2cc(O)ccc12` [daidzein], the “antioxidant activity (shift in lag time of LDL oxidation)” value in test [1] is “Less antioxidant activity”.
For `CC[C@H](c1ccc2cc(O)ccc2c1)C(C)(C)C(=O)O` [(+)-HAA], in test [2] (0.1 μg/g daily, FIGS. 5a-f), the “testis histology: spermatogenesis” value is listed as “halted at round spermatid, with a few spermatogenic cells showing elongation (acrosome phase)”. Also, in test [2], the “Prostate Weight as % Body Weight” value is recorded as 0.08 ± 0.01^1 % Body Weight, the “Seminal Vesicle Weight as % Body Weight” value stood at 0.10 ± 0.04 % Body Weight, the “Testis Weight as % Body Weight” value is given as 0.38 ± 0.02^1,4 % Body Weight and the “Body Weight (g)” value is on record as 196.2 ± 5.2^1,4,5 g. Besides, in test [3], the “effect on sulfate incorporation and weight gain” value is listed as “significant depression of sulfate incorporation without the corresponding effects on weight gain”.
For the compound `CC[C@H](c1ccc2cc(OC)ccc2c1)C(C)(C)C(=O)O` [compound 3], the “estrogenic activity (estrogenicity) in animals” value in test [4] was “one-fifth the estrogenicity of 2”.
As to `CC[C@@H](c1ccc2cc(O)ccc2c1)C(C)(C)C(=O)O` [(−)-HAA], the “prostate histology (alveoli)” value in test [2] (0.1 μg/g daily, FIGS. 4a-f) is reported as “largest degree of atrophy”. In test [2] (0.1 μg/g daily, FIGS. 5a-f), the “testis histology: spermatogenesis” value was “halted at round spermatid, with a few reaching cap phase”. In test [2], the “Prostate Weight as % Body Weight” value is 0.08 ± 0.01^1 % Body Weight, the “Seminal Vesicle Weight as % Body Weight” value is 0.04 ± 0.00^1,4 % Body Weight, the “Testis Weight as % Body Weight” value is 0.31 ± 0.01^1,4 % Body Weight and the “Body Weight (g)” value is recorded as 180.9 ± 4.5^1,2,4 g. Further, in test [5], the “MCF-7 cell proliferation (estrogenicity)” value is recorded as “highly effective”. For the same compound, in test [3], the “activity in inhibition of weight gain and sulfate incorporation, relative to compound 2” value is recorded as 100 fold.
Turning to `CC[C@@H]1c2ccc3cc(O)ccc3c2CC[C@]1(C)C(=O)O` [(−)-Z-BDDA, (−)-Z-bisdehydrodoisynolic acid], the “Uterus/testis weight (g)” value in test [6] (female rats (uterus), 2.5 ug/g of body weight daily, six weeks, mean ± SEM) was 1.44 ± 0.34^2,3,4 g. Moreover, in test [6] (setting [8]), the “Blood glucose” value is 95.00 ± 8.33 mg/dL, the “FER (food efficiency ratio)” value is listed as 0.011 ± 0.005^1,2 and the “Food intake” value was found to be 675.2 ± 37.9 g. Further, the “weight gain (percent weight change)” value in test [6] (female rats, both experiments (FIGS. 2 and 3), 2.5 μg/g daily) was “repress weight gain slightly more than did (+)-Z-BDDA and E2”. Moreover, the “Uterus/testis weight (g)” value in test [6] (male rats (testis), 2.5 ug/g of body weight daily, five weeks, mean ± SEM) is recorded as 0.57 ± 0.04^1 g. Moreover, in test [6] (male rats, 2.5 μg/g daily, compared to the vehicle), the testosterone entry is on record as “less pronounced”. In test [6] (setting [9]), the “Blood glucose (mg/dl)” value is 88.00 ± 2.00^1 mg/dl, the “FER (food efficiency ratio)” value is reported as −0.01 ± 0.01^1, the “Prostate weight (g)” value is recorded as 0.03 ± 0.10^1 g and the “Food intake” value amounted to 650.0 ± 54.3 g. Besides, the “mean apoptosis (% area)” value in test [7] was found to be 26.1%. Besides, in test [2] (0.1 μg/g daily, FIGS. 5a-f), the “testis histology: Leydig cells” value is given as “severely atrophied Leydig cells, the smallest of all the treatments” and the “testis histology: spermatogenesis” value is reported as “halted primarily at the secondary spermatocyte phase”. Besides, in test [2], the “Prostate Weight as % Body Weight” value is listed as 0.08 ± 0.00^1 % Body Weight, the “Seminal Vesicle Weight as % Body Weight” value was 0.06 ± 0.02^4 % Body Weight, the “Testis Weight as % Body Weight” value is listed as 0.31 ± 0.02^1,4 % Body Weight and the “Body Weight (g)” value was 166.5 ± 4.5^1,2,4 g. In addition, the “antioxidant activity (shift in lag time of LDL oxidation)” value in test [1] is reported as “significant antioxidant activity”.
Take `O=c1c(-c2ccc(O)cc2)coc2cc(O)cc(O)c12` [genistein]: the “antioxidant activity (shift in lag time of LDL oxidation)” value in test [1] is given as “Less antioxidant activity”.
